Source: patent US20120178786A9, “Use of tetramic acid derivatives for controlling pests by drenching, drip application, or dip application” (priority 2006, published 2012)

Experiments:
Assay type in all cases: in vivo
[1] = tested on: Trialeurodes vaporarium (TRIAVA); assay: Example 10: drip application to tomato plants on rock wool, Abbott efficacy; conditions: three treatments
Description: In each case 12 tomato plants cv. “Briljant” on rock wool are treated, in four replications, with a drip application against Trialeurodes vaporarium (TRIAVA) with an active substance solution containing the active substance I-4 (cis isomer, formulation: 100 OD) in comparison with the commercial standard imidacloprid (70 WG) at the application rate stated. The greenhouse temperature is 20° C. Three treatments are carried out at intervals of seven and fourteen days. The test is evaluated 14, 21, 28, 36 and 43 days after the 1st treatment by determining the efficacy with the aid of Abbott's formula.

[2] = tested on: citrus mealybug Pseudococcus citri (PSECCI); assay: Example 12: drench of Coleus plants, Abbott efficacy; conditions: 240 SC
Description: Coleus plants (approximate height 29 cm) in 6-inch pots which have been infected approximately 4 weeks before the treatment with citrus mealybug Pseudococcus citri (PSECCI) are drenched, in three replications, with an active substance solution containing the active substance I-4 (cis isomer, formulation: 240 SC) and, by way of comparison, with the commercial standard imidacloprid (240 SC) at the application rate stated. The greenhouse temperature is 29° C. The test is evaluated 7, 14, 21 and 28 days after the treatment by determining the efficacy with the aid of Abbott's formula.

Coccus viridis = assay: Example 11: drench of gardenia plants, Henderson-Tilton efficacy against nymphs; conditions: 240 SC
Description: Gardenia plants cv. […] The greenhouse temperature is 27° C. The test is evaluated 7, 15, 21 and 35 days after the treatment by determining the activity against nymphs on the leaves with the aid of the Henderson-Tilton method.

Bemisia sp. = assay: Example 15: drench of bell pepper plots, kill rate of larvae on the leaves
Description: Plots approximately 2×5 m in size which contain bell pepper plants are treated, in three replications, against Bemisia sp. The active substance example (I-4) cis isomer (240 SC) is drenched in an active substance solution at the application rate stated. The water application rate is 700 l/ha. Three treatments are carried out at intervals of 7 and 14 days. The test is evaluated in each case 7, 14, 21 and 28 days after the 3rd treatment by scoring the kill rate of the larvae on the leaves.

[3] = tested on: Trialeurodes vaporarium (TRIAVA); assay: Example 9: drench of courgette plots, Abbott efficacy; conditions: four treatments of 10 mg active substance/plant at 10-day intervals, I-4 240 SC, imidacloprid 200 SL
Description: Plots approximately 12 m^2 in size and containing courgette plants (47 days after sowing) are drenched, in three replications, against Trialeurodes vaporarium (TRIAVA) with 100 ml of an active substance solution per plant, containing the active substance I-4 (cis isomer, formulation: 240 SC) and, by way of comparison, with the standard imidacloprid (200 SL) at the application rate stated. Four applications are effected at 10-day intervals. The test is evaluated 21, 31, 38 and 45 days after the 1st treatment by determining the efficacy with the aid of Abbott's formula.

Aphis craccivora = assay: Example 3: drench of violet plants, Henderson-Tilton efficacy against nymphs; conditions: 12 mg active substance/1 potting compost, 240 SC
Description: Violet plants cv. “Ladies delight” (approximate height 15 cm) in 4-inch pots which had been infected with Aphis craccivora two weeks before the treatment are drenched, in four replications, with an active substance solution containing the active substance I-4 (cis isomer, formulation: 240 SC) and, by way of comparison, with the commercial standard imidacloprid (240 SC) at the application rate stated. The greenhouse temperature is 27-33° C. The test is evaluated 7, 14, 22 and 35 days after the treatment by determining the activity against nymphs on the leaves with the aid of the Henderson-Tilton method.

[4] = tested on: Tetranychus urticae (TETRUR); assay: Example 5: drench of gardenia plants, Henderson-Tilton efficacy against nymphs; conditions: 240 SC
Description: Gardenia plants cv. “Cape jasmine” in 6-inch pots which had been infected with Tetranychus urticae (TETRUR) two weeks before the beginning of the experiment are drenched, in three replications, with in each case 100 ml of active substance solution containing the active substance I-4 (cis isomer, formulation: 240 SC) and, by way of comparison, with the commercial standard imidacloprid (240 SC) at the application rate stated. The greenhouse temperature is 25-30° C. The test is evaluated 3, 15 and 22 days after the treatment by determining the activity against nymphs on the leaves with the aid of the Henderson-Tilton method.

[5] = tested on: Frankliniella occidentalis (FRANOC); assay: Example 6: drench of verbena plants, Henderson-Tilton efficacy against nymphs; conditions: 12 mg active substance/1 potting compost, 240 SC
Description: Verbena plants (approximate height 13 cm) in 6-inch-pots which are infected with Frankliniella occidentalis (FRANOC) are drenched, in four replications, with an active substance solution containing the active substance I-4 (cis isomer, formulation: 240 SC) and, by way of comparison, with the commercial standard imidacloprid (240 SC) at the application rate stated. The greenhouse temperature is 27-33° C. The test is evaluated 7, 14, 21 and 28 days after the treatment by determining the activity against nymphs on the leaves with the aid of the Henderson-Tilton method.

Thrips palmi = assay: Example 7: drench of cucumber plots, Abbott efficacy; conditions: 20 mg active substance/plant, two applications at 10-day interval, I-4 240 SC, imidacloprid 100 SL
Description: Plots approximately 5 m^2 in size and containing cucumber plants are drenched, in three replications, against Thrips palmi with an active substance solution containing the active substance I-4 (cis isomer, formulation: 240 SC) and, by way of comparison, with the standard imidacloprid (100 SL) at the application rate stated, corresponding to an approximate water application rate of 300 l/ha. Two applications are effected at a 10-day interval. The test is evaluated in each case 9 days after the first treatment and 7 and 13 days after the second treatment by determining the efficacy with the aid of Abbott's formula.

[6] = 7 d after treatment, 24 mg active substance/1 potting compost
[7] = 21 d after treatment, 24 mg active substance/1 potting compost
[8] = 7 d after treatment, 12 mg active substance/1 potting compost
[9] = 21 d after treatment, 12 mg active substance/1 potting compost

In the case of `CCOC(=O)OC1=C(c2cc(C)ccc2C)C(=O)N[C@]12CC[C@@H](OC)CC2` [Example I-4], the “Abbott efficacy (%) against TRIAVA” value ([1]; 14 d after 1st treatment, 20 mg active substance/plant, 100 OD) is reported as 26.8%, the “Abbott efficacy (%) against TRIAVA” value ([1]; 21 d after 1st treatment, 20 mg active substance/plant, 100 OD) is reported as 66.3% and the “Abbott efficacy (%) against TRIAVA” value ([1]; 28 d after 1st treatment, 20 mg active substance/plant, 100 OD) is reported as 90.4%. The “Abbott efficacy (%) against TRIAVA” value ([1]; 36 d after 1st treatment, 20 mg active substance/plant, 100 OD) was 95.6%, the “Abbott efficacy (%) against TRIAVA” value ([1]; 43 d after 1st treatment, 20 mg active substance/plant, 100 OD) was 97.9% and the “Abbott efficacy (%) against PSECCI” value [2, 6] was 63%. For the same molecule, the “Abbott efficacy (%) against PSECCI” value ([2]; 14 d after treatment, 24 mg active substance/1 potting compost) was 91%, the “Abbott efficacy (%) against PSECCI” value [2, 7] was 94% and the “Abbott efficacy (%) against PSECCI” value ([2]; 28 d after treatment, 24 mg active substance/1 potting compost) was 93%. The “Henderson-Tilton efficacy (%) against Coccus viridis” value (Coccus viridis; [6]) was 35%, the “Henderson-Tilton efficacy (%) against Coccus viridis” value (Coccus viridis; 15 d after treatment, 24 mg active substance/1 potting compost) was 45% and the “Henderson-Tilton efficacy (%) against Coccus viridis” value (Coccus viridis; [7]) was 69%. The “Henderson-Tilton efficacy (%) against Coccus viridis” value (Coccus viridis; 35 d after treatment, 24 mg active substance/1 potting compost) was 100%, the “Efficacy (% Abbott) against Bemisia sp.” value (Bemisia sp.; 7 d after 3rd treatm., 40 + 5 + 5 mg/plant, 240 SC) was 86.2 % Abbott and the “Efficacy (% Abbott) against Bemisia sp.” value (Bemisia sp.; 14 d after 3rd treatm., 40 + 5 + 5 mg/plant, 240 SC) was 94.4 % Abbott. For the same molecule, the “Efficacy (% Abbott) against Bemisia sp.” value (Bemisia sp.; 21 d after 3rd treatm., 40 + 5 + 5 mg/plant, 240 SC) was 94.9 % Abbott, the “Efficacy (% Abbott) against Bemisia sp.” value (Bemisia sp.; 28 d after 3rd treatm., 40 + 5 + 5 mg/plant, 240 SC) was 90.5 % Abbott and the “Abbott efficacy (%) against TRIAVA” value ([3]; 21 d after 1st treatment) was 57.5%. The “Abbott efficacy (%) against TRIAVA” value ([3]; 31 d after 1st treatment) was 85.9%, the “Abbott efficacy (%) against TRIAVA” value ([3]; 38 d after 1st treatment) was 88.5% and the “Abbott efficacy (%) against TRIAVA” value ([3]; 45 d after 1st treatment) was 85.7%. For the same molecule, the “Henderson-Tilton efficacy (%) against Aphis craccivora” value (Aphis craccivora; 7 d after treatment) was 100%, the “Henderson-Tilton efficacy (%) against Aphis craccivora” value (Aphis craccivora; 14 d after treatment) was 84% and the “Henderson-Tilton efficacy (%) against Aphis craccivora” value (Aphis craccivora; 22 d after treatment) was 100%. The “Henderson-Tilton efficacy (%) against Aphis craccivora” value (Aphis craccivora; 35 d after treatment) was 100%, the “Henderson-Tilton efficacy (%) against TETRUR” value ([4]; 3 d after treatment, 77 mg active substance/1 potting compost) was 39.0% and the “Henderson-Tilton efficacy (%) against TETRUR” value ([4]; 15 d after treatment, 77 mg active substance/1 potting compost) was 89.1%. The “Henderson-Tilton efficacy (%) against TETRUR” value ([4]; 22 d after treatment, 77 mg active substance/1 potting compost) was 100%, the “Henderson-Tilton efficacy (%) against FRANOC” value ([5]; 7 d after treatment) was 100% and the “Henderson-Tilton efficacy (%) against FRANOC” value ([5]; 14 d after treatment) was 100%. For the same molecule, the “Henderson-Tilton efficacy (%) against FRANOC” value ([5]; 21 d after treatment) was 90%, the “Henderson-Tilton efficacy (%) against FRANOC” value ([5]; 28 d after treatment) was 100% and the “Abbott efficacy (%) against THRIPL” value (Thrips palmi; 7 d after 2nd treatm.) was 64.1%. For the same molecule, the “Abbott efficacy (%) against THRIPL” value (Thrips palmi; 9 d after 1st treatm.) was 66.3% and the “Abbott efficacy (%) against THRIPL” value (Thrips palmi; 13 d after 2nd treatm.) was 80.0%.
For `O=[N+]([O-])NC1=NCCN1Cc1ccc(Cl)nc1` [Imidacloprid, imidacloprid, reference compound], the “Abbott efficacy (%) against TRIAVA” value ([1]; 14 d after 1st treatment, 9.8 mg active substance/plant, 70 WG) was 28.4%, the “Abbott efficacy (%) against TRIAVA” value ([1]; 21 d after 1st treatment, 9.8 mg active substance/plant, 70 WG) was 55.3% and the “Abbott efficacy (%) against TRIAVA” value ([1]; 28 d after 1st treatment, 9.8 mg active substance/plant, 70 WG) was 89.1%. For the same molecule, the “Abbott efficacy (%) against TRIAVA” value ([1]; 36 d after 1st treatment, 9.8 mg active substance/plant, 70 WG) was 92.0%, the “Abbott efficacy (%) against TRIAVA” value ([1]; 43 d after 1st treatment, 9.8 mg active substance/plant, 70 WG) was 89.8% and the “Abbott efficacy (%) against PSECCI” value [2, 8] was 30%. The “Abbott efficacy (%) against PSECCI” value ([2]; 14 d after treatment, 12 mg active substance/1 potting compost) was 35%, the “Abbott efficacy (%) against PSECCI” value [2, 9] was 19% and the “Abbott efficacy (%) against PSECCI” value ([2]; 28 d after treatment, 12 mg active substance/1 potting compost) was 16%. The “Henderson-Tilton efficacy (%) against Coccus viridis” value (Coccus viridis; [8]) was 45%, the “Henderson-Tilton efficacy (%) against Coccus viridis” value (Coccus viridis; 15 d after treatment, 12 mg active substance/1 potting compost) was 55% and the “Henderson-Tilton efficacy (%) against Coccus viridis” value (Coccus viridis; [9]) was 66%. For the same molecule, the “Henderson-Tilton efficacy (%) against Coccus viridis” value (Coccus viridis; 35 d after treatment, 12 mg active substance/1 potting compost) was 100%, the “Efficacy (% Abbott) against Bemisia sp.” value (Bemisia sp.; 7 d after 3rd treatm., 10.5 mg/plant) was 96.6 % Abbott and the “Efficacy (% Abbott) against Bemisia sp.” value (Bemisia sp.; 14 d after 3rd treatm., 10.5 mg/plant) was 80.6 % Abbott. The “Efficacy (% Abbott) against Bemisia sp.” value (Bemisia sp.; 21 d after 3rd treatm., 10.5 mg/plant) was 84.6 % Abbott, the “Efficacy (% Abbott) against Bemisia sp.” value (Bemisia sp.; 28 d after 3rd treatm., 10.5 mg/plant) was 85.7 % Abbott and the “Abbott efficacy (%) against TRIAVA” value ([3]; 21 d after 1st treatment) was 88.1%. For the same molecule, the “Abbott efficacy (%) against TRIAVA” value ([3]; 31 d after 1st treatment) was 74.0%, the “Abbott efficacy (%) against TRIAVA” value ([3]; 38 d after 1st treatment) was 77.2% and the “Abbott efficacy (%) against TRIAVA” value ([3]; 45 d after 1st treatment) was 63.7%. For the same molecule, the “Henderson-Tilton efficacy (%) against Aphis craccivora” value (Aphis craccivora; 7 d after treatment) was 100%, the “Henderson-Tilton efficacy (%) against Aphis craccivora” value (Aphis craccivora; 14 d after treatment) was 94% and the “Henderson-Tilton efficacy (%) against Aphis craccivora” value (Aphis craccivora; 22 d after treatment) was 100%. The “Henderson-Tilton efficacy (%) against Aphis craccivora” value (Aphis craccivora; 35 d after treatment) was 100%, the “Henderson-Tilton efficacy (%) against TETRUR” value ([4]; 3 d after treatment, 38.4 mg active substance/1 potting compost) was 72.7% and the “Henderson-Tilton efficacy (%) against TETRUR” value ([4]; 15 d after treatment, 38.4 mg active substance/1 potting compost) was 82.2%. The “Henderson-Tilton efficacy (%) against TETRUR” value ([4]; 22 d after treatment, 38.4 mg active substance/1 potting compost) was 0%, the “Henderson-Tilton efficacy (%) against FRANOC” value ([5]; 7 d after treatment) was 100% and the “Henderson-Tilton efficacy (%) against FRANOC” value ([5]; 14 d after treatment) was 100%. The “Henderson-Tilton efficacy (%) against FRANOC” value ([5]; 21 d after treatment) was 49%, the “Henderson-Tilton efficacy (%) against FRANOC” value ([5]; 28 d after treatment) was 100% and the “Abbott efficacy (%) against THRIPL” value (Thrips palmi; 7 d after 2nd treatm.) was 68.8%. The “Abbott efficacy (%) against THRIPL” value (Thrips palmi; 9 d after 1st treatm.) was 73.7% and the “Abbott efficacy (%) against THRIPL” value (Thrips palmi; 13 d after 2nd treatm.) was 44.0%.
